According to patent publication US20180214410A1, “Development of Dietary Therapy in Cancer” (Osaka University, priority 2015, published 2018):

Tested on: pulmonary adenocarcinoma
Assay: clinical course under other anticancer drugs in the lung cancer cases
Type: in vivo, human
Source text: Each case is disclosed in detail below.

| SMILES | side effects (case 2, oral dosing from September to May 2014, no ketogenic diet) | adverse event due to erlotinib (case 4, August 2014, on the head) | primary tumor (primary lesion) under erlotinib administration (one patient who left the ketogenic diet after the 3 month evaluation) |
| --- | --- | --- | --- |
| COc1cc2ncnc(Nc3ccc(F)c(Cl)c3)c2cc1OCCCN1CCOCC1 [Iressa, gefitinib] | not found |  |  |
| C#Cc1cccc(Nc2ncnc3cc(OCCOC)c(OCCOC)cc23)c1 [erlotinib] |  | eczema | contraction |
